# From patent US20030229145A1, “Pain treatment methods and compositions” (GRUENENTHAL GMBH, priority 2000, published 2003)
# Counter-ions that a name gives are not always drawn. Like-named read-outs stand apart in the source and are kept apart here.
# What was measured:
# AMPA receptor = assay: Affinity for the AMPA receptor; type: binding
# [1] = test system: AMPA response of spinal neurons in the dorsal horn; assay: Microiontophoresis on anaesthetized rats (evoked potentials of dorsal horn cells after application of excitatory amino acids); type: in vivo; conditions: for ED50: Rattus norvegicus, Neuron, read-out: ED50 of inhibition of the AMPA response; for Inhibition of the AMPA response of spinal neurons (in words): microiontophoretic NMDA, kainate
# Experimental: (derivation of evoked ascending potentials of individual cells in the dorsal horn of the spinal cord of anaesthetized rats after microiontophoretic application of excitatory amino acids (EAAs))
# Male rats (Sprague Dawley, Janvier) with a body weight of from 280 g to 350 g were used. To induce the anaesthesia, inhalation anaesthetization was carried out with 4.0-5.0% halothane in a mixture of 200 ml/min oxygen (O2) and 400 ml/min dinitrogen monoxide (N2O) in a plexiglas anaesthetization box. During the preparatory phase, the halothane concentration was reduced to 1.0-1.5%. For the rest of the experiment, the inhalation anaesthetization was then replaced by bolus application of 40 mg/kg of chloralose in 3.5% Haemaccel solution (i.v.) and maintained by continuous infusion of 20 mg/kg/2.0 ml/h of chloralose. After the induction anaesthetization (4.0-5.0% halothane, see above), the tracheal tube was fitted through a syringe cylinder (20 ml Omnifix, Luer) shortened to about 20 mm, which was placed over the mouth and nose of the animals, with a 2.5% halothane concentration. The halothane concentration was then reduced to about 1.5%. Exhaled air was extracted through a closed system. For the application of test substances, a PE-20 (1.09*0.38mm) catheter was fitted into the dorsal branch of the left V. jugularis. A PE-50 tube (0.9569 mm*0.58 mm) was inserted into the left arteria carotis as a catheter for continuously monitoring the blood pressure. For the laminectomy, the animals were then placed in the prone position. An incision was made along the midline from the nape of the neck to the pelvic region. A blood-pressure drop frequently observed following this was treated by local application of lidocaine HCl with adrenaline (xylocitin 2% with adrenaline 0.001%, Jenapharm). The superficial tissue layers on both sides of the spinal column were removed in the vicinity of the vertebral bodies from sacral 2 (S2) to thoracic 8 (Th8). The musculature associated with the vertebral bodies was also removed by careful scraping with a scalpel. The actual laminectomy begins at vertebral body L2 (lumbar 2), after removing the processus spinalis from vertebra L3, and extends into the TH8 rostral region as far as where the large dorsal veins branch off laterally and caudally. The bones of the individual vertebral bodies were carefully removed in small stages by means of fine rongeurs. The musculature around TH8/9 and L1/S2 was also removed, so that immobilization clamps could be fitted later. Exposed tissue was protected against drying by applied 0.9% strength NaCI solution or thin PVC strips. […] In addition to the blood pressure, the local blood circulation was visually assessed, a pink skin color of the paws indicating normal microcirculation. […]
# NMRI mice = assay: Phenylquinone-induced writhing test on mice; type: in vivo; conditions: 10 min; mouse, i.v., phenylquinone i.p. 10 minutes after substance
# Experimental: The anti-nociceptive efficacy of the compounds according to the invention was studied on mice with the phenylquinone-induced writhing test, modified after I. C. Hendershot, J. Forsaith, J. Pharmacol. Exp. Ther. 125, 237-240 (1959). Male NMRI mice with a weight of from 25-30 g were used for this purpose. 10 minutes after intravenous administration of a compound according to the invention, groups of 10 animals per substance dose were intraperitoneally given 0.3 ml/mouse of a 0.02% strength aqueous solution of phenylquinone (phenylbenzoquinone, Sigma, Deisenhofen; production of the solution with the addition of 5% ethanol and storage in a water bath at 45° C.). The animals were placed individually in observation cages. The number of pain-induced stretching movements (so-called writhing reactions =straightening of the body with stretching of the hind extremities) were counted by means of a push-button counter 5-20 minutes after the phenylquinone administration. Animals which received physiological saline solution i.v. and phenylquinone […]. were also included as a control.
# All the substances were tested in the standard dose of 10 mg/kg. The percentage inhibition (% inhibition) of the writhing reactions by a substance was calculated according to the following formula:
# % inhibition=100−[WR of treated animals/ WR of control×100]
# Sprague Dawley rats = assay: Mechanical hyperalgesia after paw incision on rats (paw incision model); type: in vivo
# Experimental: In this model, the pain due to a wound in the vicinity of an incision on the plantar side of a hind paw of the rat is studied as a model of postoperative pain (Brennan, T. J., Vandermeulen, E. P., Gebhart, G. F., Pain (1996) 493-501). For this purpose, the retraction latency after point mechanical stimulation with an electronic von Frey filament is determined. After the paw incision, a mechanical hyperalgesia develops and remains stable over several days.
# Male Sprague Dawley rats (body weight 200-300 g) are used. […]
# By using an electronic von Frey filament (Digital Transducer Indicator Model 1601C, IITC Inc.), the retraction threshold of the paw, expressed in grams, after point mechanical stimulation is determined. For this purpose, the retraction threshold is measured five times per measurement point at an interval of 30 sec, and the individual median is determined, with the aid of which the average of the animal population is calculated. […]
# To study the primary hyperalgesia, the retraction threshold on the ipsilateral paw is determined in the immediate vicinity of the incision, and also in the same position on the contralateral paw. […]
# The Mann-Whitney U test is used for the significance calculation (p<0.05). For dose-dependent effects, the ED50 value is determined with the aid of a regression analysis.
SMILES,Affinity for the AMPA receptor (in words) (AMPA receptor),"ED50 ([1]; anaesthetized rats, spinal neurons in the dorsal horn) [mg/kg]",Inhibition of the AMPA response of spinal neurons (in words) ([1]; anaesthetized rats),ED50 (NMRI mice) [mg/kg],"% MPE, retraction threshold of the ipsilateral paw (Sprague Dawley rats; 464 mg/kg i.p.)","% MPE, retraction threshold of the ipsilateral paw (Sprague Dawley rats; 100 mg/kg)",ED50 [1] [mg/kg]
CCCC(CC)C(N)C(=O)[O-].[Na+] (racemic),without having any AMPA affinity,60,selective inhibition of the AMPA response,,,,
"CCCCCC(C)C(N)C(=O)O (racemic) [Compound 2, rac-2-amino-3-methyl-octanoic acid hydrochloride as a 1:1 D/L mixture]",,,,28,,,
"CCCC(CC)C(N)C(=O)O.Cl (racemic) [Compound 7, rac-amino-3-ethyl-hexanoic acid hydrochloride as a 1:1 D/L mixture]",,,,,30% MPE (464 mg/kg i.p.),,
NCC1(CC(=O)O)CCCCC1 [Gabapentin],no affinity for the AMPA receptor,,dose-dependent and selective inhibition of the AMPA response,38,,66% MPE (100 mg/kg),106
